The values that follow are results of earlier work, collected in publication PMC8198792, “Prediction of Anticancer Peptides with High Efficacy and Low Toxicity by Hybrid Model Based on 3D Structure of Peptides” (International Journal of Molecular Sciences, 2021).

Read-outs that look alike come from different tables or passages of the source.

This data set deals with cancer cell lines. Details: method as in 6 sources, ref CancerPPD [45] and SATPdb ||| ref CancerPPD/SATPdb ||| ref CancerPPD, SATPdb, Swissprot (PDB) ||| ref CancerPPD/SATPdb/Swissprot(PDB) ||| ref CancerPPD / SATPdb ||| ... As to conditions: cited from earlier work. The text has this:
Supplement ijms-22-05630-s001.zip/ACPs(seguence).xlsx, sheet "D1" | column: Activity || Supplement ijms-22-05630-s001.zip/ACPs(seguence).xlsx, sheet "D2" | column: Activity || Supplement ijms-22-05630-s001.zip/ACPs(seguence).xlsx, sheet "D3" | column: Activity || (+ 2 further places)

Where [1] appears, read: ACPs dataset D1, 1 = ACP (positive), 0 = non-ACP (negative), label taken from databases, ref CancerPPD [45] and SATPdb.
The mark [2] stands for this setting: ACPs dataset D4 (sheet "D4"), label 1 = ACP, experimentally validated ACPs, ref CancerPPD [45] and SATPdb.
Where [3] appears, read: ACPs dataset D5 (sheet "D5"), label 1 = ACP (positive set), sequences with CancerPPD/SATPdb ID, ref CancerPPD, SATPdb.
[4] abbreviates: ACPs dataset sheet D2, 1 = ACP (CancerPPD/SATPdb ID), 0 = non-ACP (Swissprot/PDB ID), ref CancerPPD, SATPdb, Swissprot (PDB).
Where [5] appears, read: ACPs dataset D1, label 1 = ACP, 0 = non-ACP (non-anticancer AMPs from SATPdb), ref CancerPPD/SATPdb.
The mark [6] stands for this setting: ACPs dataset D4 (sheet "D4"), label 1 = ACP (CancerPPD ID), 0 = non-ACP (non-anticancer AMP, SATPdb ID), ref CancerPPD [45] and SATPdb.
Where [7] appears, read: ACPs dataset D2 (supplement ACPs(seguence).xlsx, sheet D2), dataset label 1/0 (ACP / non-ACP), entries identified by Swissprot(PDB ID), ref CancerPPD/SATPdb/Swissprot(PDB).
The mark [8] stands for this setting: ACPs dataset D5, sheet "D5", label 1 = ACP, 0 = non-ACP, ref CancerPPD [45] and SATPdb.
The mark [9] stands for this setting: ACPs dataset D4 (sheet "D4"), label 1 = ACP, 0 = non-ACP, ref CancerPPD / SATPdb.
The mark [10] stands for this setting: ACPs dataset D3 (supplement sheet "D3"), 1 = ACP, 0 = non-ACP, ref CancerPPD [45] and SATPdb.
The mark [11] stands for this setting: ACPs dataset D5 (sheet "D5"), label 1 = ACP (positive set), 0 = non-ACP (negative set), ref CancerPPD [45] and SATPdb.

Take GPWAPCSASCGGGSQSRS [satpdb28727]: the Activity is listed as 1 under setting [1], 1 under setting [2], 1 under setting [3] and 1 under setting [4].

For FLPLIGKILGTILGK [satpdb11777], the Activity was 0 under setting [5] and 0 under setting [6].

On to FFHHIFRGIVHVGKTIHRLVTG [compound 4437], for which the Activity was 1 under setting [1], 1 under setting [2], 1 under setting [3] and 1 under setting [4].

As to “YNRLCIKPRDWIDECDSNEGGERAYFRNGKGGCDSFWICPEDHTGADYYSSYRDCFNACI [1D0D X-ray 1.62,A,1-60]”, the Activity runs as follows: under setting [7], 0; under setting [8], 0.

As to CKGRGKRCREKQRPSDKPRR [satpdb11644], the Activity under setting [1] is on record as 1, the Activity under setting [2] is on record as 1, the Activity under setting [3] is 1 and the Activity under setting [4] was 1.

For “MESQSNAVQLMLGFGTFVLMLLGLVVELIKNSNKK [satpdb12625]”, the Activity under setting [5] is recorded as 0 and the Activity under setting [6] is 0.

For “FDVNSHTTPCGPVTCSGAQMCEVDKCVCSDLHCKVKCEHGFKKDDNGCEYACICADAPQ [1EJA X-ray 2.70 B 1-59]”, the Activity is recorded as 0 under setting [7] and 0 under setting [8].

With “LHCPALVTYNTDTFESMPNPEGRYTFGASCV [satpdb27573]”, the Activity runs as follows: under setting [1], 1; under setting [2], 1; under setting [3], 1; under setting [4], 1.

On to SPWTKCSATCGGGHYMRTR [satpdb19979], for which the Activity is 1 under setting [1], 1 under setting [2], 1 under setting [3] and 1 under setting [4].

As to “ARLKKCFNKVTGYCRKKCKVGERYEIGCLSGKLCCAN [satpdb10509]”, the Activity under setting [1] was 0 and the Activity under setting [6] was 0.

With “GVPICGETCTLGTCYTAGCSCSWPVCTRN [compound 4421]”, the Activity runs as follows: under setting [1], 1; under setting [2], 1; under setting [3], 1; under setting [4], 1.

As for KRRREKQRPCDKPRR [satpdb15198], the Activity is, setting by setting: under setting [1], 1; under setting [2], 1; under setting [3], 1; under setting [4], 1.

Consider GIWDTIKSMGKVFAGKILQN [satpdb10030], for which the Activity under setting [1] was 0 and the Activity under setting [6] is 0.

Take “KWKEFLKEFKEAKKEVLHEALKAISE [satpdb14503]”: the Activity (ACPs dataset D3 (sheet "D3"), label 1 = ACP, 0 = non-ACP, ref CancerPPD/SATPdb) was 0; the Activity under setting [9] is 0; the Activity under setting [8] was 0.

Take “GRVPYPRGGLLkLLKklLKKLlKL [compound 3587]”: the Activity runs as follows: under setting [10], 1; under setting [6], 1; under setting [11], 1.

In the case of ILPILSLIGGLLGK [compound 4439], the Activity runs as follows: under setting [1], 1; under setting [2], 1; under setting [3], 1; under setting [4], 1.

On to PAWRKAFRAAWRMLKKAA [compound 1610], for which the Activity under setting [1] is reported as 1, the Activity under setting [2] is 1, the Activity under setting [3] is on record as 1 and the Activity under setting [4] is 1.

With “GAIKDALKGAAKTVAVELLKKAQCKLEKTC [satpdb13113]”, the Activity runs as follows: under setting [5], 0; under setting [9], 0.

WKSYVRRWRSR [satpdb10329]: the Activity reads like this: under setting [1], 0; under setting [6], 0.

For the substance LNWGAVLKHVVK [satpdb11336], the Activity by setting is: under setting [10], 0; under setting [9], 0; under setting [8], 0.

For the substance “GASCGETCFTGICFTAGCSCNPWPTCTRN [compound 4369]”, the Activity was 1 under setting [1], 1 under setting [2], 1 under setting [3] and 1 under setting [4].

In the case of “KWKSFLKTFKSLKkTVLHTLLkAISS [compound 3766]”, the Activity reads like this: under setting [10], 1; under setting [6], 1; under setting [11], 1.

For the substance ALWKTLLKKVLKA [satpdb10405], under setting [10], the Activity is given as 0.

In the case of GIGKLFLHAAKKFAKAFVAEKMNS [satpdb10222], the Activity under setting [1] is listed as 0 and the Activity under setting [6] is listed as 0.

Consider FAKKLAKLAKKLAKLAL [compound 1787], for which the Activity runs as follows: under setting [10], 1; under setting [2], 1; under setting [3], 1.

On to “FLPAIVGAAAKFLPKIFCAISKKC [compound 4356]”, for which the Activity under setting [1] is listed as 1, the Activity under setting [2] is 1, the Activity under setting [3] is 1 and the Activity under setting [4] is on record as 1.

AWKKWAKAWKWAKAKWWAKAA [compound 4482]: the Activity under setting [1] is 1, the Activity under setting [2] is 1, the Activity under setting [3] is listed as 1 and the Activity under setting [4] is recorded as 1.

AAPFLECQGRQGTCHFFAN [satpdb18859]: the Activity is 1 under setting [1], 1 under setting [2], 1 under setting [3] and 1 under setting [4].

For SYSMEHFRWGKPV [2IQP model - B 1-13], the Activity was 0 under setting [11] and 0 under setting [4].

As to “SGSDGGVCPKILKKCRRDSDCPGACICRGNGYCG [1HA9 NMR - A 1-34]”, the Activity under setting [11] is recorded as 0 and the Activity under setting [4] is on record as 0.

As for “FLPIIAGIAAKFLPKIFCTISKKC [compound 4359]”, the Activity is given as 1 under setting [1], 1 under setting [2], 1 under setting [3] and 1 under setting [4].

In the case of NGREACLDPEAPMVQKIVQKMLKG [satpdb14027], the Activity under setting [1] is listed as 1, the Activity under setting [2] is 1, the Activity under setting [3] is listed as 1 and the Activity under setting [4] is listed as 1.

On to ILRWPWWPWRRK [compound 1880], for which the Activity reads like this: under setting [10], 1; under setting [6], 1; under setting [11], 1.

“LPKWKVFKKIEKVGRNIRNGIVKAGPAIAVLGEAKALG [compound 4275]”: the Activity under setting [10] is on record as 1, the Activity under setting [6] is reported as 1 and the Activity under setting [11] is recorded as 1.

For the substance “FLPIIAGAAAKVVEKIFCAISKKC [compound 4357]”, the Activity under setting [1] is 1, the Activity under setting [2] is 1, the Activity under setting [3] is 1 and the Activity under setting [4] was 1.

On to GLLGSIFGAGKKIACALSGLC [satpdb11926], for which the Activity under setting [5] was 0 and the Activity under setting [6] is recorded as 0.

Take FLKWLFKWAKK [compound 1716]: the Activity runs as follows: under setting [10], 1; under setting [2], 1; under setting [3], 1.

On to NHFTLKCPKTALTEPPTLAY [compound 3362], for which the Activity is, setting by setting: under setting [1], 1; under setting [2], 1; under setting [3], 1; under setting [4], 1.

With “GIFSLFKAGAKFFGKHLLKQAGKAGAEHLACKATNQC [satpdb10483]”, the Activity runs as follows: under setting [1], 0; under setting [6], 0.

Consider “SCASRCKGHCRARRCGYYVSVLYRGRCYCKCLRC [2EEM NMR - A 1-34]”, for which the Activity under setting [11] was 0 and the Activity under setting [4] is recorded as 0.

Consider “FLPKTLRKFFCRIRGGRCAVLNCLGKEEQIGRCSNSGRKCCRKKK [satpdb12338]”, for which the Activity is given as 0 under setting [5] and 0 under setting [6].

In the case of “PDEDAINDALNKVCSTGRRQRSICKQLLKK [compound 3108]”, the Activity under setting [1] is 1, the Activity under setting [2] was 1, the Activity under setting [3] is given as 1 and the Activity under setting [4] is recorded as 1.

For “GLPVCGETCTLGTCYTQGCTCSWPICKRN [satpdb13318]”, the Activity was 0 under setting [5] and 0 under setting [9].

With TKPRKTKPRKTKPRKTKPR [compound 5055], the Activity runs as follows: under setting [1], 1; under setting [2], 1; under setting [3], 1; under setting [4], 1.

For INGSLDKRLLPDVET [satpdb28594], the Activity runs as follows: under setting [1], 1; under setting [2], 1; under setting [3], 1; under setting [4], 1.

As to MEPECNLNCTD [satpdb10075], the Activity is, setting by setting: under setting [1], 1; under setting [2], 1; under setting [3], 1; under setting [4], 1.
